Measurements reported in patent publication US12319655B2, “RAF kinase inhibitors and methods of use thereof” (Deciphera Pharmaceuticals, LLC, priority 2021, dated 2025).
Read-outs that look alike come from different tables or passages of the source.

What was measured:
[1] = biological target: B-Raf (V600E) (SEQ. ID NO: 4) kinase (Homo sapiens (Human), UniProt P15056, V600E); experiment: Biochemical Assay for B-Raf (V600E) (1); details: Table J, BRAF V600E
Description: Biochemical Assay for B-Raf (V600E) (1)
Activity of B-Raf (V600E) (SEQ. ID NO: 4) kinase was determined spectroscopically using a coupled pyruvate kinase/lactate dehydrogenase assay that continuously monitors the ATP hydrolysis-dependent oxidation of NADH (e.g., Schindler et al., Science, 2000, 289, 1938-1942). Assays were conducted in 384-well plates (100 μL final volume) using 0.03 nM B-Raf (SignalChem), 1.5 units pyruvate kinase, 2.1 units lactate dehydrogenase, 1 mM phosphoenol pyruvate, 0.28 mM NADH, 30.1 nM MEK (SignalChem), and 1 mM ATP in assay buffer (100 mM Tris, Ph 7.5, 15 mM MgCl2, 0.5 mM DTT, 0.1% octyl-glucoside, 0.002% (w/v) BSA, and 0.002% Triton X-100). Inhibition of B-Raf (V600E) was measured by adding serial diluted test compound (final assay concentration of 1% DMSO). A decrease in absorption at 340 nm was monitored continuously for 6 h at 30° C. on a multi-mode microplate reader (BioTek). The reaction rate was calculated using the 3 to 4 h time frame. The reaction rate at each concentration of compound was converted to percent inhibition using controls (i.e., reaction with no test compound and reaction with a known inhibitor) and IC50 values were calculated by fitting a four-parameter sigmoidal curve to the data using Prism (GraphPad software).

A375 cells = experiment: A375 Cell Proliferation Assay (1); assay type: cell-based; details: Homo sapiens, A-375
Description: A375 Cell Proliferation Assay (1)
A375 cells (catalog (#CRL-1619) are obtained from the American Type Culture Collect (ATTC, Manassas, VA). Briefly, cells were grown in DMEM High Glucose supplemented with 10% characterized fetal bovine serum (Invitrogen, Carlsbad, CA) and 1% Penicillin/Streptomycin/L-Glutamine at 37° C., 5% CO2, and 95% humidity. Cells are expanded until reaching 70-95% confluency at which point they are sub-cultured or harvested for assay use. A serial dilution of test compound is dispensed into a 96-well black clear bottom plate in triplicate. Two thousand five hundred cells are added per well in 200 μL complete growth medium in the 96-well plate. Plates are incubated for 67-72 h at 37° C., 5% CO2, and 95% humidity. At the end of the incubation, 40 μL of a 440 μM solution of resazurin (Sigma, St. Louis, MO) in PBS is added to each well of the plate and plates are incubated for an additional 5-6 h at 37° C., 5% CO2, and 95% humidity. Plates are read on a Synergy2 or equivalent reader (Biotek, Winooski VT) using an excitation of 540 nm and an emission of 600 nm. Data is analyzed using Prism software (GraphPad, San Diego, CA) to calculate IC50 values.

[2] = biological target: C-Raf kinase (SEQ. ID NO: 3) (Homo sapiens (Human), UniProt P04049, Y340D/Y341D); experiment: Biochemical Assay for C-Raf (1); details: Table J
Description: Biochemical Assay for C-Raf (1)
(§1) Activity of C-Raf kinase (SEQ. ID NO: 3) was determined spectroscopically using a coupled pyruvate kinase/lactate dehydrogenase assay that continuously monitors the ATP hydrolysis-dependent oxidation of NADH (e.g., Schindler et al., Science, 2000, 289, 1938-1942). Assays were conducted in 384-well plates (100 μL final volume) using 0.43 nM C-Raf (Sigma), 1.5 units pyruvate kinase, 2.1 units lactate dehydrogenase, 1 mM phosphoenol pyruvate, 0.28 mM NADH, 30.1 nM MEK (SignalChem), and 1 mM ATP in assay buffer (100 mM Tris, Ph 7.5, 15 mM MgCl2, 0.5 mM DTT, 0.1% octyl-glucoside, 0.002% (w/v) BSA, and 0.002% Triton X-100). Inhibition of C-Raf was measured by adding serial diluted test compound (final assay concentration of 1% DMSO). A decrease in absorption at 340 nm was monitored continuously for 6 h at 30° C. on a multi-mode microplate reader (BioTek). The reaction rate was calculated using the 4 to 5 h time frame. The reaction rate at each concentration of compound was converted to percent inhibition using controls (i.e., reaction with no test compound and reaction with a known inhibitor) and IC50 values were calculated by fitting a four-parameter sigmoidal curve to the data using Prism (GraphPad software).

[3] = biological target: B-Raf kinase (SEQ. ID NO: 2) (Homo sapiens (Human), UniProt P15056); experiment: Biochemical Assay for B-Raf (1); details: Table J
Description: Biochemical Assay for B-Raf (1)
as §1, with “B-Raf” for “C-Raf”, “2)” for “3)”, “0.13” for “0.43”

[4] = biological target: A-Raf kinase (SEQ. ID No: 1) (Homo sapiens (Human), UniProt P10398, Y301D/Y302D); experiment: Biochemical Assay for A-Raf (1); details: Table J
Description: Biochemical Assay for A-Raf (1)
as §1, with “A-Raf” for “C-Raf”, “No: 1)” for “NO: 3)”, “5.55” for “0.43”, “pH” for “Ph”

[5] = assay version (1), read-out: BRAF VE (1) IC50
[6] = assay version (1), read-out: CRAF (1) IC50
[7] = assay version (1), read-out: BRAF (1) IC50
[8] = assay version (1), read-out: ARAF (1) IC50
[9] = biochemical assay (1), read-out: BRAF VE (1)
[10] = biochemical assay (1), read-out: CRAF (1)
[11] = biochemical assay (1), read-out: BRAF (1)
[12] = biochemical assay (1), read-out: ARAF (1)

Chain of A-Raf kinase (SEQ. ID No: 1) (P10398 other isoform, or with tags, fused parts or gaps Y301D (already in the parent)/Y302D (already in the parent)): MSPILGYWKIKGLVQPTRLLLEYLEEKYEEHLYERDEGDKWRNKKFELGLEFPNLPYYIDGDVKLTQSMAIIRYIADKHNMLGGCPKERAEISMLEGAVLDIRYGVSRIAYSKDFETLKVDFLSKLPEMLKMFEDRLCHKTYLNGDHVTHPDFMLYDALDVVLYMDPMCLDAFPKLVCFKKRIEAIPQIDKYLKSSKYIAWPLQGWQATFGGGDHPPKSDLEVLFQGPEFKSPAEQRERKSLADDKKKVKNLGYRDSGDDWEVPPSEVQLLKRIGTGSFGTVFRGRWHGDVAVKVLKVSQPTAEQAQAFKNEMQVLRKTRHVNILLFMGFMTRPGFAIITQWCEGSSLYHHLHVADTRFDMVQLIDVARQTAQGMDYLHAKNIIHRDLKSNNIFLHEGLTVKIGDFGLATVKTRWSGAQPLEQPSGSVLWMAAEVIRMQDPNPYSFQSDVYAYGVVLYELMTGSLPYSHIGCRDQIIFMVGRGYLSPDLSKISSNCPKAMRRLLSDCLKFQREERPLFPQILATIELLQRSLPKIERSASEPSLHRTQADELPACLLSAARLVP
Chain of B-Raf kinase (SEQ. ID NO: 2) (P15056 416-766): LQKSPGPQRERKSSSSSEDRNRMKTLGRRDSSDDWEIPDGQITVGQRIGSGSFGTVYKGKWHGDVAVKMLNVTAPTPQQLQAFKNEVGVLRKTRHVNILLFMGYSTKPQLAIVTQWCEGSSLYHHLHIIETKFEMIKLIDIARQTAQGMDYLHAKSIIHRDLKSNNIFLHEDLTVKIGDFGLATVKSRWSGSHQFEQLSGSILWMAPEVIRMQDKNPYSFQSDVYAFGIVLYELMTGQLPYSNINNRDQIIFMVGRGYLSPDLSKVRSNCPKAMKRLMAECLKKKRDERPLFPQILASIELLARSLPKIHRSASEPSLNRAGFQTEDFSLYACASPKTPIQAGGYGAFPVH
Chain of B-Raf (V600E) (SEQ. ID NO: 4) kinase (P15056 416-766 V600E): as the sequence (P15056 416-766) above, with V185E counted along it
Chain of C-Raf kinase (SEQ. ID NO: 3) (P04049 307-648 Y340D/Y341D): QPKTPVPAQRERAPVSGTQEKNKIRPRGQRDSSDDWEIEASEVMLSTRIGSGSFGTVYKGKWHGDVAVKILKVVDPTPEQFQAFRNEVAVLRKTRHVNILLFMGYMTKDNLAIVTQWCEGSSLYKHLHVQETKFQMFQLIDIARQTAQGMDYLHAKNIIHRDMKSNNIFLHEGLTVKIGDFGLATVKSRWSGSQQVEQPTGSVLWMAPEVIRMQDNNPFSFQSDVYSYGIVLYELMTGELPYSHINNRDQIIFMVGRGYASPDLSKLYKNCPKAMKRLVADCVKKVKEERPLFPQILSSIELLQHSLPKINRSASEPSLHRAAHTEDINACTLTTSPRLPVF

SMILES	IC50 [1, 5] [nM]	IC50 (A375 cells) [nM]	IC50 [2, 6] [nM]	IC50 [3, 7] [nM]	IC50 [4, 8] [nM]	IC50 [1, 9] [nM]	IC50 [2, 10] [nM]	IC50 [3, 11] [nM]	IC50 [4, 12] [nM]
CCOc1cc(-c2cc(NC(=O)c3ccnc(C(F)(F)F)c3)c(F)cc2C)cc(-c2ccnc(NC(C)=O)c2)n1 [Example 9]	≤ 100	100 to 500	≤ 100	100 to 500	1000 to 10000	–	–	–	–
Cc1ccc(NC(=O)c2ccnc(C(F)(F)F)c2)cc1-c1cccc(-c2ccnc(N)c2)c1 [Example 38]	≤ 100	1000 to 10000	≤ 100	≤ 100	1000 to 10000	–	–	–	–
Cc1ncc(NC(=O)C2CCOC2)cc1-c1nccc(-c2ccnc(NC(=O)C3CC3)c2)n1 (stereo not drawn) [Example 335]	1000 to 10000	–	1000 to 10000	1000 to 10000	1000 to 10000	–	–	–	–
Cc1ncc(NC(=O)C2CCOCC2)cc1-c1ccnc(-c2ccnc(NC(=O)C3CC3)c2)n1 [Example 336]	500 to 1000	–	1000 to 10000	1000 to 10000	1000 to 10000	–	–	–	–
Cc1ncc(NC(=O)C2CCOC2)cc1-c1ccnc(-c2ccnc(NC(=O)C3CC3)c2)n1 (stereo not drawn) [Example 337]	1000 to 10000	–	1000 to 10000	1000 to 10000	1000 to 10000	–	–	–	–
Cc1ncc(NC(=O)C2CCC3(CC2)COC3)cc1-c1nccc(-c2ccnc(NC(=O)C3CC3)c2)n1 [Example 338]	500 to 1000	–	1000 to 10000	1000 to 10000	1000 to 10000	–	–	–	–
Cc1ncc(NC(=O)C2CCOCC2)cc1-c1nccc(-c2ccnc(NC(=O)C3CC3)c2)n1 [Example 339]	100 to 500	–	1000 to 10000	1000 to 10000	1000 to 10000	–	–	–	–
Cc1ccc(NC(=O)C23CCC(C#N)(CC2)CC3)cc1-c1ccnc(-c2ccnc(NC(=O)C3CC3)c2)n1 [Example 340]	≤ 100	–	100 to 500	1000 to 10000	1000 to 10000	–	–	–	–
Cc1ncc(NC(=O)C23CCC(C#N)(CC2)CC3)cc1-c1cccc(-c2ccnc(NC(=O)C3CC3)c2)n1 [Example 342]	1000 to 10000	–	1000 to 10000	1000 to 10000	1000 to 10000	–	–	–	–
CO[C@H]1CC[C@H](C(=O)Nc2cnc(C)c(-c3cccc(-c4ccnc(NC(=O)C5CC5)c4)n3)c2)CC1 [Example 343]	100 to 500	–	500 to 1000	1000 to 10000	1000 to 10000	–	–	–	–
Cc1ccc(NC(=O)C2CCN(C)C2)cc1-c1cccc(-c2cc(NC(=O)C3CC3)ncn2)c1 (stereo not drawn) [Example 344]	100 to 500	–	500 to 1000	1000 to 10000	1000 to 10000	–	–	–	–
Cc1ccc(NC(=O)C2CCOC2)cc1-c1cccc(-c2cc(NC(=O)C3CC3)ncn2)c1 (stereo not drawn) [Example 345]	≤ 100	–	100 to 500	1000 to 10000	1000 to 10000	–	–	–	–
Cc1ncc(NC(=O)C2CCOCC2)cc1-c1cccc(-c2cc(NC(=O)C3CC3)ncn2)c1 [Example 349]	100 to 500	–	500 to 1000	1000 to 10000	1000 to 10000	–	–	–	–
Cc1ncc(NC(=O)C2CNCCO2)cc1-c1cccc(-c2cc(NC(=O)C3CC3)ncn2)c1 (stereo not drawn) [Example 350]	1000 to 10000	–	1000 to 10000	1000 to 10000	1000 to 10000	–	–	–	–
Cc1ncc(NC(=O)C2CCN(C)C2)cc1-c1cccc(-c2cc(NC(=O)C3CC3)ncn2)c1 (stereo not drawn) [Example 351]	500 to 1000	–	1000 to 10000	1000 to 10000	1000 to 10000	–	–	–	–
Cc1ncc(NC(=O)C2CCOC2)cc1-c1cccc(-c2cc(NC(=O)C3CC3)ncn2)c1 (stereo not drawn) [Example 352]	500 to 1000	–	1000 to 10000	1000 to 10000	1000 to 10000	–	–	–	–
Cc1ncc(NC(=O)CN2CCOCC2)cc1-c1cccc(-c2cc(NC(=O)C3CC3)ncn2)c1 [Example 353]	100 to 500	–	500 to 1000	1000 to 10000	1000 to 10000	–	–	–	–
Cc1ncc(NC(=O)CC2CC(F)(F)C2)cc1-c1nccc(-c2ccnc(NC(=O)C3CC3)c2)n1 [Example 354]	≤ 100	–	100 to 500	500 to 1000	1000 to 10000	–	–	–	–
Cc1ncc(NC(=O)CC2COC2)cc1-c1nccc(-c2ccnc(NC(=O)C3CC3)c2)n1 [Example 355]	1000 to 10000	–	1000 to 10000	1000 to 10000	1000 to 10000	–	–	–	–
Cc1ncc(NC(=O)CC2COC2)cc1-c1cccc(-c2cc(NC(=O)C3CC3)ncn2)c1 [Example 356]	500 to 1000	–	1000 to 10000	1000 to 10000	1000 to 10000	–	–	–	–
COC(=O)Nc1cc(-c2cnnc(-c3cc(NC(=O)c4ccnc(C(C)(C)C#N)c4)ccc3F)c2)ccn1 [Example 390]	–	–	–	–	–	100 to 500	≤ 100	≤ 100	1000 to 10000
Cc1ccc(NC(=O)Cn2cc(C(C)C)nn2)cc1-c1cncc(-c2cc(N)ncn2)c1 [Example 426]	–	–	–	–	–	1000 to 10000	500 to 1000	1000 to 10000	1000 to 10000
